What was measured:
Assay type in all cases: in vivo
[1] = test system: crabgrass, large (large crabgrass, Digitaria sanguinalis); assay: Test A postemergence, crabgrass, large; settings: 0 to 100 scale
From the text: (§1) Seeds of plant species selected from bamyardgrass (Echinochloa crus-galli), kochia (Kochia scoparia), ragweed (common ragweed, Ambrosia elatior), ryegrass, Italian (Italian ryegrass, Lolium multiflorum), foxtail, giant (giant foxtail, Setaria faberii), pigweed (Amaranthus retroflexus), crabgrass, large (large crabgrass, Digitaria sanguinalis), momingglory (Ipomoea spp.), velvetleaf (Abutilon theophrasti), wheat (Triticum aestivum), and corn (Zea mays) were planted into a blend of loam soil and sand and treated preemergence with a directed soil spray using test chemicals formulated in a non-phytotoxic solvent mixture which included a surfactant. At the same time, plants selected from these crop and weed species and also blackgrass (Alopecurus myosuroides), and galium (catchweed bedstraw, Galium aparine) were planted in pots containing the same blend of loam soil and sand and treated with postemergence applications of test chemicals formulated in the same manner. Plants ranged in height from 2 to 10 cm and were in the one- to two-leaf stage for the postemergence treatment. Treated plants and untreated controls were maintained in a greenhouse for approximately 10 days, after which time all treated plants were compared to untreated controls and visually evaluated for injury. Plant response ratings, summarized in Table A, are based on a 0 to 100 scale where 0 is no effect and 100 is complete control. A dash (-) response means no test result.

[2] = test system: velvetleaf (Abutilon theophrasti); assay: Test A postemergence, velvetleaf; settings: 0 to 100 scale
From the text: as §1

[3] = test system: velvetleaf (Abutilon theophrasti); assay: Test A preemergence, velvetleaf; settings: 0 to 100 scale
From the text: as §1

[4] = test system: crabgrass, large (large crabgrass, Digitaria sanguinalis); assay: Test A preemergence, crabgrass, large; settings: 0 to 100 scale
From the text: as §1

[5] = test system: barnyardgrass (Echinochloa crus-galli); assay: Test B flooded paddy test, barnyardgrass; settings: Flood, 250 g ai/ha; scale of 0 to 100
In short: (§2)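 Paddy-water application at a 3 cm flood, young plants having two leaves. Water level maintained; greenhouse, 13–15 days; visual 0–100 control rating.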

[6] = test system: morningglory (Ipomoea spp.); assay: Test A preemergence, morningglory; settings: 500 g ai/ha, 0 to 100 scale
From the text: as §1

corn (Zea mays) [7] = assay: Test A preemergence, corn; settings: 0 to 100 scale
From the text: as §1

[8] = test system: wheat (Triticum aestivum); assay: Test A postemergence, wheat; settings: 0 to 100 scale
In short: (§3)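 Greenhouse pot test, loam + sand. Preemergence = soil spray at sowing; postemergence = foliar spray, 1–2 leaf stage, 2–10 cm tall. ~10 d, then visual injury vs untreated, 0–100.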

[9] = test system: sedge, umbrella (small-flower umbrella sedge, Cyperus difformis); assay: Test B flooded paddy test, sedge, umbrella; settings: Flood, 250 g ai/ha; scale of 0 to 100
In short: as §2

[10] = test system: ducksalad (Heteranthera limosa); assay: Test B flooded paddy test, ducksalad; settings: Flood, 250 g ai/ha; scale of 0 to 100
In short: as §2

corn (Zea mays) [11] = assay: Test A postemergence, corn; settings: 0 to 100 scale
In short: as §3

[12] = test system: barnyardgrass (Echinochloa crus-galli); assay: Test A preemergence, barnyardgrass; settings: 0 to 100 scale
In short: as §3

[13] = test system: foxtail, giant (giant foxtail, Setaria faberii); assay: Test A preemergence, foxtail, giant; settings: 0 to 100 scale
In short: as §3

[14] = test system: pigweed (Amaranthus retroflexus); assay: Test A postemergence, pigweed; settings: 0 to 100 scale
In short: as §3

[15] = test system: barnyardgrass (Echinochloa crus-galli); assay: Test A postemergence, barnyardgrass; settings: 0 to 100 scale
In short: as §3

[16] = test system: foxtail, giant (giant foxtail, Setaria faberii); assay: Test A postemergence, foxtail, giant; settings: 0 to 100 scale
In short: as §3

[17] = test system: pigweed (Amaranthus retroflexus); assay: Test A preemergence, pigweed; settings: 0 to 100 scale
In short: as §3

[18] = test system: wheat (Triticum aestivum); assay: Test A preemergence, wheat; settings: 0 to 100 scale
From the text: as §1

[19] = test system: morningglory (Ipomoea spp.); assay: Test A postemergence, morningglory; settings: 0 to 100 scale
From the text: as §1

rice (Oryza sativa) = assay: Test B flooded paddy test, rice; settings: Flood, 250 g ai/ha; scale of 0 to 100
In short: as §2

Compound: Clc1cnc(Oc2cccnc2-n2cc(Br)cn2)nc1 [Compound 1, 2-[[2-(4-bromo-1H-pyrazol-1-yl)-3-pyridinyl]oxy]-5-chloropyrimidine]
- Plant response rating, Crabgrass, Large ([1]; 125 g ai/ha): 10
- Plant response rating, Crabgrass, Large ([1]; 500 g ai/ha): 50
- Plant response rating, Velvetleaf ([2]; 125 g ai/ha): 20
- Plant response rating, Velvetleaf ([2]; 500 g ai/ha): 50
- Plant response rating, Velvetleaf ([3]; 125 g ai/ha): 10
- Plant response rating, Velvetleaf ([3]; 500 g ai/ha): 30
- Plant response rating, Crabgrass, Large ([4]; 125 g ai/ha): 40
- Plant response rating, Crabgrass, Large ([4]; 500 g ai/ha): 100
- Plant response rating, Barnyardgrass [5]: 0
- Plant response rating, Morningglory [6]: 0
- Plant response rating, Corn (corn (Zea mays) [7]; 125 g ai/ha): 0
- Plant response rating, Corn (corn (Zea mays) [7]; 500 g ai/ha): 0
- Plant response rating, Wheat ([8]; 125 g ai/ha): 10
- Plant response rating, Wheat ([8]; 500 g ai/ha): 20
- Plant response rating, Sedge, Umbrella [9]: 50
- Plant response rating, Ducksalad [10]: 60
- Plant response rating, Corn (corn (Zea mays) [11]; 125 g ai/ha): 10
- Plant response rating, Corn (corn (Zea mays) [11]; 500 g ai/ha): 20
- Plant response rating, Barnyardgrass ([12]; 125 g ai/ha): 10
- Plant response rating, Barnyardgrass ([12]; 500 g ai/ha): 50
- Plant response rating, Foxtail, Giant ([13]; 125 g ai/ha): 20
- Plant response rating, Foxtail, Giant ([13]; 500 g ai/ha): 80
- Plant response rating, Pigweed ([14]; 125 g ai/ha): 90
- Plant response rating, Pigweed ([14]; 500 g ai/ha): 100
- Plant response rating, Barnyardgrass ([15]; 125 g ai/ha): 0
- Plant response rating, Barnyardgrass ([15]; 500 g ai/ha): 10
- Plant response rating, Foxtail, Giant ([16]; 125 g ai/ha): 10
- Plant response rating, Foxtail, Giant ([16]; 500 g ai/ha): 30
- Plant response rating, Pigweed ([17]; 125 g ai/ha): 50
- Plant response rating, Pigweed ([17]; 500 g ai/ha): 90
- Plant response rating, Wheat ([18]; 125 g ai/ha): 0
- Plant response rating, Wheat ([18]; 500 g ai/ha): 10
- Plant response rating, Morningglory ([19]; 125 g ai/ha): 10
- Plant response rating, Morningglory ([19]; 500 g ai/ha): 80
- Plant response rating, Rice (rice (Oryza sativa)): 0

From US11006631B2, “Substituted pyrimidinyloxy pyridine derivatives as herbicides” (FMC Corporation, priority 2015, dated 2021)
